From PubChem BioAssay (NCI)
Several values for one entry are separate records, joined by “and”; a condition that tells them apart may be missing. Equal entries are not always repeated.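 Protocol summary: plate cells (96-well), add compound at 5 concentrations, incubate 48 h, interpolate endpoints linearly. Here, GI50 denotes the concentration required for 50% inhibition of growth. At the TGI there is no net growth.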

Legend:
Assay in all cases: NCI tumour cell line growth inhibition, 48 h
KM12 colon = test system: KM12 colon
SNB-75 CNS = test system: SNB-75 CNS
SF-295 CNS = test system: SF-295 CNS
LOX IMVI melanoma = test system: LOX IMVI melanoma
SK-MEL-5 melanoma = test system: SK-MEL-5 melanoma
HOP-62 NSCLC = test system: HOP-62 NSCLC
ACHN renal = test system: ACHN renal
MOLT-4 leukemia = test system: MOLT-4 leukemia
M19-MEL melanoma = test system: M19-MEL melanoma
XF 498 CNS = test system: XF 498 CNS

Row | SMILES | TGI (KM12 colon) [µM] | TGI (SNB-75 CNS) [µM] | TGI (SF-295 CNS) | TGI (LOX IMVI melanoma) | TGI (SK-MEL-5 melanoma) [µM] | TGI (HOP-62 NSCLC) [µM] | TGI (ACHN renal) | TGI (MOLT-4 leukemia) [µM] | TGI (M19-MEL melanoma) [µM] | GI50 (KM12 colon) | GI50 (SNB-75 CNS) [µM] | GI50 (SF-295 CNS) [µM] | GI50 (XF 498 CNS) [µM] | TGI (XF 498 CNS) [µM] | GI50 (LOX IMVI melanoma) [µM] | GI50 (SK-MEL-5 melanoma) [µM] | GI50 (HOP-62 NSCLC) [µM] | GI50 (ACHN renal) [µM] | GI50 (MOLT-4 leukemia) [µM] | GI50 (M19-MEL melanoma) [µM]
1 | O=C1c2ccccc2C2(O)c3cc4ccccc4cc3OC12O (stereo not drawn) | > 100 | > 100 | > 100 µM | > 100 µM | 86.9 | > 100 | > 100 µM | > 100 | > 100 | – | – | – | – | – | – | – | – | – | – | –
2 | CCCCCCC[CH2][Sn]1([CH2]CCCCCCC)[O]C(=O)c2cccnc2[S]1 | > 100 | > 100 | > 100 µM | > 100 µM | > 100 | > 100 | > 100 µM | > 100 | > 100 | > 100 µM | > 100 | > 100 | 30.8 | > 100 | > 100 | > 100 | > 100 | > 100 | > 100 | > 100
3 | O=C(O)CSc1n[nH]c(-c2ccccc2)n1 | > 100 | > 100 | > 100 µM | > 100 µM | > 100 | > 100 | > 100 µM | > 100 | > 100 | – | – | – | – | > 100 | – | – | – | – | – | –
4 | Cc1c(Cl)cccc1N1C(=O)C(Cl)=C(Cl)C1=O | > 100 | > 100 | > 100 µM | > 100 µM | > 100 | > 100 | > 100 µM | 28.1 | > 100 | – | – | – | – | > 100 | – | – | – | – | – | –
5 | CCC1C2C=CC(CC2)N1S(=O)(=O)c1ccc(C)cc1 (stereo not drawn) | > 100 | – | > 100 µM | 31.5 µM | 36.1 | 76.3 | > 100 µM | > 100 | > 100 | – | – | – | – | – | – | – | – | – | – | –
6 | CCOC(=O)C1(c2ccccc2)CCC(=O)CC1 | > 100 | > 100 | > 100 µM | > 100 µM | > 100 | > 100 | > 100 µM | > 100 | > 100 | – | – | – | – | – | – | – | – | – | – | –
7 | COc1ccc(/C(=N\NC(=O)C(N)=O)C(c2ccc(OC)cc2)C2(O)C(=O)Nc3c(Cl)cccc32)cc1 (stereo not drawn) | > 100 | > 100 | > 100 µM | > 100 µM | > 100 | > 100 | > 100 µM | > 100 | > 100 | – | – | – | – | > 100 | – | – | – | – | – | –
8 | O=C(O)[C@H](NS(=O)(=O)c1ccc2ccccc2c1)c1ccccc1 | – | > 100 | – | > 100 µM | – | – | > 100 µM | > 100 | > 100 | – | – | – | – | > 100 | – | – | – | – | – | –
9 | Cc1ccc(Cn2c(C)nc3c2C(=O)c2ccccc2C3=O)cc1 | > 100 | 36.3 | 42.9 µM | 6.18 µM | 19.5 | 42.1 | 38.9 µM | > 100 | 21.1 | – | – | – | – | 47.6 | – | – | – | – | – | –
10 | Cc1ccc(S(=O)(=O)N/N=C/c2oc(-c3ccncc3)c(-c3ccncc3)c2[N+](=O)[O-])cc1 | > 100 | > 100 | > 100 µM | > 100 µM | > 100 | > 100 | > 100 µM | > 100 | > 100 | – | – | – | – | > 100 | – | – | – | – | – | –
11 | CCOC(=O)C(C)(C)Oc1ccc2c(C)c(-c3ccc(Cl)cc3)c(=O)oc2c1 | – | > 100 | > 100 µM | > 100 µM | 35 | > 100 | > 100 µM | > 100 | > 100 | – | – | – | – | 83.9 | – | – | – | – | – | –
12 | O=C(NCCCCN=c1cccccc1NCCCCNC(=O)OCc1ccccc1)OCc1ccccc1 | 32.4 | 39.6 | 26.9 µM | 30 µM | 33.1 | 39 | 59.5 µM | 38.1 | 39.3 | – | – | – | – | 18.6 | – | – | – | – | – | –
13 | CC1=C2CCCC2=C/C(=N/Nc2ccc([N+](=O)[O-])cc2[N+](=O)[O-])CC1 | > 100 | > 100 | > 100 µM | > 100 µM | > 100 | > 100 | > 100 µM | > 100 | > 100 | – | – | – | – | > 100 | – | – | – | – | – | –
14 | O=[N+]([O-])c1ccc(-n2nnc(C3=NCCN3)c2-c2ccc(Cl)cc2)cc1 | > 100 | > 100 | > 100 µM | > 100 µM | > 100 | > 100 | > 100 µM | > 100 | > 100 | – | – | – | – | > 100 | – | – | – | – | – | –
15 | N=c1ccn2c(n1)OC1C(O)C(CO)OC12 (stereo not drawn) | > 806 | > 1000 | 359 µM and > 100 µM | 98.9 µM and > 100 µM | > 1000 | 130 | 14 µM and 3.49 µM | – | > 1000 | 147 µM and > 40.9 µM | > 100 | 5.93 | – | > 1000 | 0.497 | 10.4 | 0.326 | 0.237 | 0.016 | –
16 | O=C(N/N=C1/C(=O)N(c2ccc(Cl)cc2Cl)C(=O)C(=O)C1c1nc2ccccc2o1)c1ccccc1O (stereo not drawn) | > 100 | > 100 | – | – | 40.2 | 75.2 | > 100 µM | > 100 | > 100 | – | – | – | – | 75.2 | – | – | – | – | – | –
17 | COc1ccc2oc(-c3cccnc3)cc(=O)c2c1 | > 100 | > 100 | > 100 µM | > 100 µM | – | > 100 | > 100 µM | > 100 | > 100 | – | – | – | – | > 100 | – | – | – | – | – | –
18 | CC1(C)OCCn2c1nc1c(N3CCOCC3)nc(-c3cnc(N)nc3)nc12 | > 100 | 0.817 | 1.92 µM | > 27.4 µM | 2.9 | 6.56 | > 100 µM | > 100 | – | 0.761 µM | 0.0563 | 0.213 | – | – | 0.265 | 0.346 | 0.477 | 0.274 | 0.33 | –
19 | COc1ccc(-c2cc(-c3ccccc3)c(C#N)c(=O)n2C2OC(CO)C(O)C(O)C2O)cc1 (stereo not drawn) | > 100 | – | > 100 µM | > 100 µM | > 100 | > 100 | > 100 µM | > 100 | > 100 | – | – | – | – | – | – | – | – | – | – | –
20 | c1ccc(SC2CCSc3ccccc3C2Sc2ccccc2)cc1 (stereo not drawn) | > 100 | > 100 | > 100 µM | > 100 µM | > 100 | > 100 | > 100 µM | > 100 | – | – | – | – | – | > 100 | – | – | – | – | – | –
